Results reported in ChEMBL document CHEMBL5518174 (Eur J Med Chem, 2024).
Active and inactive are the calls of the source. No cut-off for these calls is given here.

Columns and labels:
[1] = Toxicity in athymic nude BALB/c mouse xenografted with human MDA-MB-231 cells assessed as effect on creatinine level in serum at 3 mg/kg, ip administered 5 times a week for 7 weeks; type: organism-based; conditions: in vivo, 1176 h
[2] = Upregulation of acetylated H3 protein expression in human MDA-MB-231 cells assessed as fold change at 0.1 uM incubated for 24 hrs by immunoblotting analysis (reference value: 1); type: functional
[3] = Effect on HDAC5 protein expression in human NCI-H1975 cells assessed as fold change at 0.05 uM incubated for 24 hrs by immunoblotting analysis (reference value: 1); type: functional
[4] = target: T1, Histone deacetylase 8 (Homo sapiens, UniProt Q9BY41); experiment: Inhibition of recombinant human HDAC8 using acetylated luminogenic substrate incubated for 10 mins by ultra-glo recombinant firefly luciferase based luminescence assay
T1 sequence (Q9BY41 whole entry): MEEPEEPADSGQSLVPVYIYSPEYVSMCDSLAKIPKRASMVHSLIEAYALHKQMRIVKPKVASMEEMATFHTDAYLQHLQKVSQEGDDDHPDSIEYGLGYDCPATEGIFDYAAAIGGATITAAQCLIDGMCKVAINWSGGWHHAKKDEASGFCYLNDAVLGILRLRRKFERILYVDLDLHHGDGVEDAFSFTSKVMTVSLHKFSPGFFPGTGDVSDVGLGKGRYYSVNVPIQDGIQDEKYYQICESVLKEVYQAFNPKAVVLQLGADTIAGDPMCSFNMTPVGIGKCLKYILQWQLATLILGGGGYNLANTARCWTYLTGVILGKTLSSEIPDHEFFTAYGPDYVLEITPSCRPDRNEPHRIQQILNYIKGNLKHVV

[5] = target: Histone deacetylase 9 (Homo sapiens, UniProt Q9UKV0); experiment: Inhibition of recombinant human HDAC9 using acetylated luminogenic substrate incubated for 10 mins by ultra-glo recombinant firefly luciferase based luminescence assay
[6] = target: Histone deacetylase 5 (Homo sapiens, UniProt Q9UQL6); experiment: Inhibition of recombinant human HDAC5 using acetylated luminogenic substrate incubated for 10 mins by ultra-glo recombinant firefly luciferase based luminescence assay
[7] = tested on: NCI-H1975; experiment: Antitumor activity against human NCI-H1975 cells xenografted in athymic nude BALB/c mouse assessed as reduction in tumor growth at 6 mg/kg, ip administered 5 times a week for 3 weeks by vernier caliper method; type: functional, organism-based
[8] = Downregulation of HDAC1 protein expression in human NCI-H1975 cells assessed as fold change at 0.1 uM incubated for 24 hrs by immunoblotting analysis (reference value: 1); type: functional
[9] = tested on: NCI-H1975; experiment: Antitumor activity against human NCI-H1975 cells xenografted in athymic nude BALB/c mouse assessed as average tumor size at 6 mg/kg, ip administered 5 times a week for 3 weeks and measured on day 22 (reference value: 776.4 +/- 118.1 mm3); type: functional; conditions: time 22 day
[10] = target: Histone deacetylase 1 (Homo sapiens, UniProt Q13547); experiment: Inhibition of recombinant human HDAC1 using acetylated luminogenic substrate incubated for 10 mins by ultra-glo recombinant firefly luciferase based luminescence assay
[11] = Effect on HDAC2 protein expression in human MDA-MB-231 cells assessed as fold change at 0.1 uM incubated for 24 hrs by immunoblotting analysis (reference value: 1); type: functional
[12] = target: Histone deacetylase 3 (Homo sapiens, UniProt O15379); experiment: Inhibition of recombinant human HDAC3 using acetylated luminogenic substrate incubated for 10 mins by ultra-glo recombinant firefly luciferase based luminescence assay
[13] = Upregulation of acetylated H4 protein expression in human NCI-H1975 cells assessed as fold change at 0.1 uM incubated for 24 hrs by immunoblotting analysis (reference value: 1); type: functional
[14] = target: T2, Histone deacetylase 11 (Homo sapiens, UniProt Q96DB2); experiment: Inhibition of recombinant human HDAC11 using acetylated luminogenic substrate incubated for 10 mins by ultra-glo recombinant firefly luciferase based luminescence assay
T2 sequence (Q96DB2 whole entry): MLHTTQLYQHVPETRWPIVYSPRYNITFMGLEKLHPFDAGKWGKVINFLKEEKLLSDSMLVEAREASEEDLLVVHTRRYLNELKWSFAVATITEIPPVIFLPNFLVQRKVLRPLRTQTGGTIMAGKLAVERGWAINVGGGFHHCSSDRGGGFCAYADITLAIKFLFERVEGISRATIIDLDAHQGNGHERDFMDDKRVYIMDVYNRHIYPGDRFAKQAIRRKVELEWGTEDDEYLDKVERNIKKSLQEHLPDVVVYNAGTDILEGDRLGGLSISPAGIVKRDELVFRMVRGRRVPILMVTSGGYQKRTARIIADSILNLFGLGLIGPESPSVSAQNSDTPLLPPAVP

[15] = Downregulation of HDAC9 protein expression in human MDA-MB-231 cells assessed as fold change at 0.1 uM incubated for 24 hrs by immunoblotting analysis (reference value: 1); type: functional
[16] = Downregulation of HDAC1 protein expression in human MDA-MB-231 cells assessed as fold change at 0.1 uM incubated for 24 hrs by immunoblotting analysis (reference value: 1); type: functional
[17] = Toxicity in athymic nude BALB/c mouse xenografted with human NCI-H1975 cells assessed as effect on AST level at 6 mg/kg, ip administered 5 times a week for 3 weeks and measured on day 22; type: organism-based; conditions: in vivo, 528 h, time 22 day
[18] = Downregulation of HDAC7 protein expression in human NCI-H1975 cells assessed as fold change at 0.05 uM incubated for 24 hrs by immunoblotting analysis (reference value: 1); type: functional
[19] = Downregulation of HDAC7 protein expression in human NCI-H1975 cells assessed as fold change at 0.1 uM incubated for 24 hrs by immunoblotting analysis (reference value: 1); type: functional
[20] = Toxicity in athymic nude BALB/c mouse xenografted with human NCI-H1975 cells assessed as reduction in body weight at 6 mg/kg, ip administered 5 times a week for 3 weeks and measured on day 22; type: organism-based; conditions: in vivo, 528 h, time 22 day
[21] = tested on: NCI-H1975; experiment: cells; type: functional, cell-based; conditions: Homo sapiens, NCI-H1975, 48 h
Description: Cytotoxicity against human NCI-H1975 cells assessed as inhibition of cell growth incubated for 48 hrs by Celltiter-glo assay

[22] = Upregulation of acetylated H4 protein expression in human NCI-H1975 cells assessed as fold change at 0.05 uM incubated for 24 hrs by immunoblotting analysis (reference value: 1); type: functional
[23] = Downregulation of HDAC2 protein expression in human NCI-H1975 cells assessed as fold change at 0.1 uM incubated for 24 hrs by immunoblotting analysis (reference value: 1); type: functional
[24] = Effect on HDAC4 protein expression in human NCI-H1975 cells assessed as fold change at 0.05 uM incubated for 24 hrs by immunoblotting analysis (reference value: 1); type: functional
[25] = Effect on HDAC1 protein expression in human NCI-H1975 cells assessed as fold change at 0.05 uM incubated for 24 hrs by immunoblotting analysis (reference value: 1); type: functional
[26] = tested on: MDA-MB-231; experiment: Cytotoxicity against human MDA-MB-231 cells assessed as inhibition of cell growth incubated for 48 hrs by Celltiter-glo assay; type: functional, cell-based; conditions: MDA-MB-231, 48 h
[27] = Downregulation of HDAC3 protein expression in human NCI-H1975 cells assessed as fold change at 0.05 uM incubated for 24 hrs by immunoblotting analysis (reference value: 1); type: functional

Sequence of Histone deacetylase 9 (Q9UKV0 whole entry): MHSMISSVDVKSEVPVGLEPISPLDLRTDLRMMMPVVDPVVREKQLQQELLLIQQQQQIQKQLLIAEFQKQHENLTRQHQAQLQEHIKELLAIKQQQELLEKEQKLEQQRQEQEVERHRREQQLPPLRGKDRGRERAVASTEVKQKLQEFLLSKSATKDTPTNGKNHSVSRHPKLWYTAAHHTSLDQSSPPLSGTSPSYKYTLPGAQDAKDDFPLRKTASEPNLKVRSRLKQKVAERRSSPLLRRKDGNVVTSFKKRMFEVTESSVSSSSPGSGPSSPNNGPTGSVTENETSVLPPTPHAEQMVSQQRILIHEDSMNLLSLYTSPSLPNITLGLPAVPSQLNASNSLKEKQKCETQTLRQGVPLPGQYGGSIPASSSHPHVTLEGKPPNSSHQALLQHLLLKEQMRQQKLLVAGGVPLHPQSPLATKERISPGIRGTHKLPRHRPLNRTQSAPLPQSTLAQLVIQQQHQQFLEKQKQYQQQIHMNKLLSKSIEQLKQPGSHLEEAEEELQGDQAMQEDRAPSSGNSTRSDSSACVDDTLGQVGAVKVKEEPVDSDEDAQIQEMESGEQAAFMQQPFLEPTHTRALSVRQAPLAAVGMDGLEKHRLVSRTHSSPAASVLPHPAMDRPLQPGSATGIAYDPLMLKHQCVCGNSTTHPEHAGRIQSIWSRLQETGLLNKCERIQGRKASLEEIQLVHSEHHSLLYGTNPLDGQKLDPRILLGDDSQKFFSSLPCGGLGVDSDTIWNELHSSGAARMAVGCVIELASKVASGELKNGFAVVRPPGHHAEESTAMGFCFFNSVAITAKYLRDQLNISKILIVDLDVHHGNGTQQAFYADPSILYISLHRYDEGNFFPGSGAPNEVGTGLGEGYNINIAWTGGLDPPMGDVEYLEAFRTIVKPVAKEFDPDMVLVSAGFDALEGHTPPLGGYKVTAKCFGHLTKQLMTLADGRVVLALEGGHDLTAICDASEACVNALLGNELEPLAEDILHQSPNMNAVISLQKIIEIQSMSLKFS
Sequence of Histone deacetylase 5 (Q9UQL6 whole entry): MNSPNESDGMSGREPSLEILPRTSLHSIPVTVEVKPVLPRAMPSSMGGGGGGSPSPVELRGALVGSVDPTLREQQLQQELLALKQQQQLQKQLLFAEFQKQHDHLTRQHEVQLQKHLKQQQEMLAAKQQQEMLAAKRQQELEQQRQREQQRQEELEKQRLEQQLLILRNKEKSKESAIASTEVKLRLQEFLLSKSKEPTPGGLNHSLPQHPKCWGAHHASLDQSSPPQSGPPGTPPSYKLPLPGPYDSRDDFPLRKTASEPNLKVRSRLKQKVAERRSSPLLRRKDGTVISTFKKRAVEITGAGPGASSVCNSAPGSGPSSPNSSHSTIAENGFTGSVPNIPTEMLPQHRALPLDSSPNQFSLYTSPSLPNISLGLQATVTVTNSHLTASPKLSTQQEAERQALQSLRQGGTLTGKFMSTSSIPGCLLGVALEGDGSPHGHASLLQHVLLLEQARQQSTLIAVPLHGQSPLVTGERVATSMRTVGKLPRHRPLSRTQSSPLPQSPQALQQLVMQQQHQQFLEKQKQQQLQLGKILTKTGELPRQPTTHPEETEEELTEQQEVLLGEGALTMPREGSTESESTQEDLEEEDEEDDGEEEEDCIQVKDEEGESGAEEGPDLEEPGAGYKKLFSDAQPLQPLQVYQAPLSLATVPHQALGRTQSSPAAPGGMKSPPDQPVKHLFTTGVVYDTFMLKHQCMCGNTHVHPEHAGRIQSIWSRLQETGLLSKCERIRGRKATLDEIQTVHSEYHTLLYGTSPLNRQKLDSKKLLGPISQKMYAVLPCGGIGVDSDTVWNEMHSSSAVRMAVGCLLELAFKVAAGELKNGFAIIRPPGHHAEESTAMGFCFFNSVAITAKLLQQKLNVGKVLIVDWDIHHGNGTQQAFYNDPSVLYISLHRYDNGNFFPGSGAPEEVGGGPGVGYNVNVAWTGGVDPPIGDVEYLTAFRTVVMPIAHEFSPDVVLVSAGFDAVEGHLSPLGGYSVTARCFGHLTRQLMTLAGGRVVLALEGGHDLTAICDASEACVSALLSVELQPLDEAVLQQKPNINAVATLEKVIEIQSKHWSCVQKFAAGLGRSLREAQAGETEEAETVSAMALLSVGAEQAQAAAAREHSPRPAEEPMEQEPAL
Sequence of Histone deacetylase 3 (O15379 whole entry): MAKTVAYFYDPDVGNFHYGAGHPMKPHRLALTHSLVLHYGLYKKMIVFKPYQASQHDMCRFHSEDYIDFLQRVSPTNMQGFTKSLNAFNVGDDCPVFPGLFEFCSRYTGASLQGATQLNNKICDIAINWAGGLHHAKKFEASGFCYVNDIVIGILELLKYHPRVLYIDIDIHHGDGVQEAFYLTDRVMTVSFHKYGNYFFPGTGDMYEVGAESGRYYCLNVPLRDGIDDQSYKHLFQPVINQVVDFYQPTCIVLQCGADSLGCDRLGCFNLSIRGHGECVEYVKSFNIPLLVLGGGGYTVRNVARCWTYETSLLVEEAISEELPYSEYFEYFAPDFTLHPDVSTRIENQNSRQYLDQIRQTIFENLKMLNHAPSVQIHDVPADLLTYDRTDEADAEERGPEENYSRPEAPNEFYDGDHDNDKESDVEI
Sequence of Histone deacetylase 1 (Q13547 whole entry): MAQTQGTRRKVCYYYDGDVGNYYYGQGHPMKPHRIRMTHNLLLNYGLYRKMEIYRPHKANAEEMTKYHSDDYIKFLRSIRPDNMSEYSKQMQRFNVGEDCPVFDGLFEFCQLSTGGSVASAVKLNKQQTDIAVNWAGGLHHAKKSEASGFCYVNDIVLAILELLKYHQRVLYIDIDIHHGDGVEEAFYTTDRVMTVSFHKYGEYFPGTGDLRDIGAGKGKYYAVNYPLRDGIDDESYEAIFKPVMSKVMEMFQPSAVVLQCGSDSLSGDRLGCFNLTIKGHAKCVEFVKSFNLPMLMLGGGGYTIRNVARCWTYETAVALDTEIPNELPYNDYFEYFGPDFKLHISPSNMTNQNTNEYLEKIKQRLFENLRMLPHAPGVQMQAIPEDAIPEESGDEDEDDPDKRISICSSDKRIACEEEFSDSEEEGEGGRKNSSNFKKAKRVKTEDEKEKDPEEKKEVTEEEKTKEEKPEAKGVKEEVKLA

SMILES: CCOc1ccc(-c2nc(C(=O)NCc3ccc(C(=O)NO)cc3)c3[nH]c(=O)n(-c4cccnc4OC)c3n2)cn1
- Activity [1]: Non-Toxic
- fold change (FC) [2]: 1.35
- fold change (FC) [3]: 2.38
- IC50 [4]: 0.139 µM
- IC50 [5]: 0.0197 µM
- IC50 [6]: > 1 µM
- Activity [7]: Active
- fold change (FC) [8]: 0.95
- Activity [9]: 331.8 mm3
- IC50 [10]: 0.0051 µM
- fold change (FC) [11]: 1.25
- IC50 [12]: 0.0088 µM
- fold change (FC) [13]: 1.95
- IC50 [14]: 0.0499 µM
- fold change (FC) [15]: 0.94
- fold change (FC) [16]: 0.88
- Activity [17]: Non-Toxic
- fold change (FC) [18]: 0.94
- fold change (FC) [19]: 0.79
- Activity [20]: Non-Toxic
- IC50 [21]: 1.2 µM
- fold change (FC) [22]: 1.7
- fold change (FC) [23]: 0.69
- fold change (FC) [24]: 1.33
- fold change (FC) [25]: 1.44
- IC50 [26]: 0.51 µM
- fold change (FC) [27]: 0.82
